How the values were obtained:
[1] = target: Met (phospho-Met, HGF-stimulated PC-3 prostate cancer cells) (Homo sapiens (Human), UniProt P08581); assay: Met autophosphorylation ELISA in PC-3 cells (Example F); format: cell-based; details: cellular activity; Met autophosphorylation ELISA in PC-3 cells; read-out: c-Met IC50
How it was run: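 IC50 values derive from a 4-parameter logistic fit of phospho-Met (panTyr) sandwich ELISA signals in PC-3 lysates, scaled between DMSO and reference-inhibitor wells. Cells, starved 3 h in serum-free medium, had 1 h compound exposure (8 doses, 0.3% DMSO) before 10 min stimulation with 100 ng/mL HGF.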

[2] = target: Mer (phospho-Mer, MERTK-transfected 293A cells) (Homo sapiens (Human), UniProt Q12866); assay: Mer autophosphorylation ELISA in transient transfected 293A cells (Example H); format: cell-based; details: cellular activity; Mer autophosphorylation ELISA in transient transfected 293A cells
Sequence of Mer (phospho-Mer, MERTK-transfected 293A cells) (Q12866 21-999): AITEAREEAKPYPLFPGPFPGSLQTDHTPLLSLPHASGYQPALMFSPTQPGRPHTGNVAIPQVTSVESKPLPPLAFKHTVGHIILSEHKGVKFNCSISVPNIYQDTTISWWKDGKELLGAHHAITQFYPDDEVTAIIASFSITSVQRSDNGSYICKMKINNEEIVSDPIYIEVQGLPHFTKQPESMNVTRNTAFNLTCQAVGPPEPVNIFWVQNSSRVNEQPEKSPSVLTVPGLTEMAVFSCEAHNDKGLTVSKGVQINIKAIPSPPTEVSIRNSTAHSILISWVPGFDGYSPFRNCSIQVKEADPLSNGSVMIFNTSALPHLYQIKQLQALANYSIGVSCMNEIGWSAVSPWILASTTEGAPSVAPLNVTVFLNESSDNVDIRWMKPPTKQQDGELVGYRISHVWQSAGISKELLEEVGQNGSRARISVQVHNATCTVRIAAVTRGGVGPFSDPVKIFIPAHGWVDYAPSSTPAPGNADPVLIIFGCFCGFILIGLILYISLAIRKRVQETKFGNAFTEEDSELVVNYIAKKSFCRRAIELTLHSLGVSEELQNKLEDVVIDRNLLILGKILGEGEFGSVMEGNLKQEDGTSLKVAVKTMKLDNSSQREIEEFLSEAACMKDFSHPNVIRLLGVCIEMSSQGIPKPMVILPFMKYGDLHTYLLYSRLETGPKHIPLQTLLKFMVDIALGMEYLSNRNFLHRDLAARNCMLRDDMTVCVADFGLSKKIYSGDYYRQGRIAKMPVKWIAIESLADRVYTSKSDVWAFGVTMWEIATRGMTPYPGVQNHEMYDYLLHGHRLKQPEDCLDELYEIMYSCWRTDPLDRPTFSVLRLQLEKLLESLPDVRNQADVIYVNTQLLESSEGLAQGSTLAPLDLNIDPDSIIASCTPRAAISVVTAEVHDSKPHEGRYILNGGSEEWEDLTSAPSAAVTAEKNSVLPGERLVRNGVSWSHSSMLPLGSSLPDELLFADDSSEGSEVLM
How it was run: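 MERTK-transfected 293A; 8-pt dose, 1 h, serum-free, 0.3% DMSO. Cold lysis with orthovanadate and protease/phosphatase inhibitors. Phospho-Mer by DuoSet IC ELISA vs phospho-Mer standard. IC50: 4-PL fit; DMSO = 100%, reference inhibitor = 0%.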

[3] = target: Human KDR (residues 790-1356) (Homo sapiens (Human), UniProt P35968); assay: Human KDR kinase assay, HTRF KinEase (Example B-2); format: biochemical; details: protocol of Example B-2 (other compounds)
Sequence of Human KDR (residues 790-1356) (P35968 790-1356): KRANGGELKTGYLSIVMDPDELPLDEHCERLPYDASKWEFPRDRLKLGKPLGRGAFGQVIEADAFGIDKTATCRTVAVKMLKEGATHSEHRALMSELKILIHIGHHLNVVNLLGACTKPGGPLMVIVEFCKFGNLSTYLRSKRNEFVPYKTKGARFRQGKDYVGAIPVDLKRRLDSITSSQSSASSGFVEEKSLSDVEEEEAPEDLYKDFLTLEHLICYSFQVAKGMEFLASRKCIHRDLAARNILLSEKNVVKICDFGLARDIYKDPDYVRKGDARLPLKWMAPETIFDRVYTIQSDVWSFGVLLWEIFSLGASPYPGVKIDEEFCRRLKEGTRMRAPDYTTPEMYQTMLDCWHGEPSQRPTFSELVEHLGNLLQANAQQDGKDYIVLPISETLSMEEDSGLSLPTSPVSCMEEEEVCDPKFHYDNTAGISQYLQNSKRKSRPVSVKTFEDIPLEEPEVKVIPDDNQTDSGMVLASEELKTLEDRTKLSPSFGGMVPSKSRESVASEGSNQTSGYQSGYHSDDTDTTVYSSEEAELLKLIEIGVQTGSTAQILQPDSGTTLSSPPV
How it was run: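 Ten compound concentrations (3% DMSO final) were pre-plated, then KDR (790-1356) with biotinylated peptide in Mg/Mn/DTT buffer was added; ATP at Km (4.0 μM) started a 40 min room-temperature reaction. Detection used Eu-TK antibody and SA-XL665 in EDTA buffer; activity normalized to DMSO and reference inhibitor, IC50 by logistic fit.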

[4] = target: Human MER (residues 528-999) (Homo sapiens (Human), UniProt Q12866); assay: Human Mer kinase assay, HTRF KinEase (Example C-2); format: biochemical; details: protocol of Example C-2 (other compounds)
Sequence of Human MER (residues 528-999) (Q12866 528-999): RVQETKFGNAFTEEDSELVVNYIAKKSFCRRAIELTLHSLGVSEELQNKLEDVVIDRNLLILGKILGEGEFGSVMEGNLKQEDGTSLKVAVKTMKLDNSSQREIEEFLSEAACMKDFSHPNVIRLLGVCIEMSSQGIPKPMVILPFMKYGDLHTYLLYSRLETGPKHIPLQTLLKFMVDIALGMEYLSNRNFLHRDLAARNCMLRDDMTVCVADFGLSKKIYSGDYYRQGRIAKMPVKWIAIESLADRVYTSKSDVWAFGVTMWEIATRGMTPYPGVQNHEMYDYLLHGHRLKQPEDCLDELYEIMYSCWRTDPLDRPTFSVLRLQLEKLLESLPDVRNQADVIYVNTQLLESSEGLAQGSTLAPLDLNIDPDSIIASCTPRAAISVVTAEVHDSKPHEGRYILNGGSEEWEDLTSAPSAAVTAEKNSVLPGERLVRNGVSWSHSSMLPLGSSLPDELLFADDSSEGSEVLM
How it was run: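 HTRF KinEase TK assay with MER 528-999 (1 ng/well) in enzymatic buffer plus 5 mM MgCl2 and 1 mM DTT, biotinylated peptide substrate and ATP at Km (40 μM), 3% DMSO final, 60 min at room temperature. Stopped with EDTA detection mix (SA-XL665, TK antibody-Eu3+), read at 665/620 nm after 60 min; IC50 from 10-point 4-parameter fit, normalized to DMSO and 1 μM reference.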

Sequence of Met (phospho-Met, HGF-stimulated PC-3 prostate cancer cells) (P08581 25-1390): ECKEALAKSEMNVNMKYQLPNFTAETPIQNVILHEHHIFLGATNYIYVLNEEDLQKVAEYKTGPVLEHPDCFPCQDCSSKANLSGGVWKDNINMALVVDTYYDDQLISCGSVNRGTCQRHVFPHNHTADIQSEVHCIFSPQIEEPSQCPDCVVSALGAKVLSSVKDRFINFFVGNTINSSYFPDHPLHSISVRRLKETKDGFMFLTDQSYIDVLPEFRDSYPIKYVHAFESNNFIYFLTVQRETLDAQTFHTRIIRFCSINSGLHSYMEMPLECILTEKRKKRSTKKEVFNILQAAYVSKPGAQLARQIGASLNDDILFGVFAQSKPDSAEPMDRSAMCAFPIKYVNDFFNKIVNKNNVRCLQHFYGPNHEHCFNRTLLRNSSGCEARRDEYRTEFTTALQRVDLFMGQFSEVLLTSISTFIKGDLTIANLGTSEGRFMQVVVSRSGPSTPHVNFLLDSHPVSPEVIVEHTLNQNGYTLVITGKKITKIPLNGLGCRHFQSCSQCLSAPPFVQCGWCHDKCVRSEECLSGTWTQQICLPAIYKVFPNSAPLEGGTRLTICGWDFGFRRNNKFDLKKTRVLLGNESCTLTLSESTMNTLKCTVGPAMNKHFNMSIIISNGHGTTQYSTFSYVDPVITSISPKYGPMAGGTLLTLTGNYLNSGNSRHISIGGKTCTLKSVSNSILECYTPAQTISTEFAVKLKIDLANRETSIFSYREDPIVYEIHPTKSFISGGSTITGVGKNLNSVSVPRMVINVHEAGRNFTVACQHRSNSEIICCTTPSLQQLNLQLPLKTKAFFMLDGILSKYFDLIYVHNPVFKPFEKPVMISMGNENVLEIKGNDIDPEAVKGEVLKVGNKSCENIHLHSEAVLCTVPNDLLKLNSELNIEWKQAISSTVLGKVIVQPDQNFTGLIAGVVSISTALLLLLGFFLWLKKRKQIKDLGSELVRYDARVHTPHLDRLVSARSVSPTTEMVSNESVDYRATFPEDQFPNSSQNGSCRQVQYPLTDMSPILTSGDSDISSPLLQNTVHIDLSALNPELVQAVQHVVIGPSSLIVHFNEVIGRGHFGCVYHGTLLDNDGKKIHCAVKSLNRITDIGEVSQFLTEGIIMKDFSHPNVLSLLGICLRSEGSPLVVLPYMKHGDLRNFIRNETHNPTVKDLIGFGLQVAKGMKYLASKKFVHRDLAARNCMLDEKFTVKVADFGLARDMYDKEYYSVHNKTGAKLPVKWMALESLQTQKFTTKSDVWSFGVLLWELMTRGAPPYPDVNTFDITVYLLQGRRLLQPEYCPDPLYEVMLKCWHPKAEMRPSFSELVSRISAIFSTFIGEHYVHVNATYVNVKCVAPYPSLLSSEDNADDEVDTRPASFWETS

SMILES | IC50 [1] | IC50 [2] | IC50 [3] | IC50 [4]
COc1cc2nccc(Oc3ccc(NC(=O)c4cn(C)c(C)c(-c5ccc(F)cc5)c4=O)cc3Cl)c2nc1OC [Compound 388, N-[3-chloro-4-[(6,7-dimethoxy-1,5-naphthyridin-4-yl)oxy]phenyl]-5-(4-fluorophenyl)-1,6-dimethyl-4-oxopyridine-3-carboxamide] | < 100 nM | < 100 nM | < 100 nM | < 100 nM
COc1cc2nccc(Oc3ccc(NC(=O)c4cn(C)c(C)c(-c5ccc(F)cc5)c4=O)c(F)c3)c2nc1OC [Compound 389, N-[4-[(6,7-dimethoxy-1,5-naphthyridin-4-yl)oxy]-2-fluorophenyl]-5-(4-fluorophenyl)-1,6-dimethyl-4-oxopyridine-3-carboxamide] | < 100 nM | < 100 nM | > 300 nM | < 100 nM
COc1cc2nccc(Oc3ccc(NC(=O)c4cn(C)c(C)c(-c5ccc(F)cc5)c4=O)c(F)c3F)c2nc1OC [Compound 390, N-[4-[(6,7-dimethoxy-1,5-naphthyridin-4-yl)oxy]-2,3-difluorophenyl]-5-(4-fluorophenyl)-1,6-dimethyl-4-oxopyridine-3-carboxamide] | < 100 nM | < 100 nM | > 300 nM | < 100 nM
COc1cc2nccc(Oc3cc(F)c(NC(=O)c4cn(C)c(C)c(-c5ccc(F)cc5)c4=O)cc3F)c2nc1OC [Compound 391, N-[4-[(6,7-dimethoxy-1,5-naphthyridin-4-yl)oxy]-2,5-difluorophenyl]-5-(4-fluorophenyl)-1,6-dimethyl-4-oxopyridine-3-carboxamide] | < 100 nM | < 100 nM | 100 to 300 nM | < 100 nM
COc1cc2nccc(Oc3c(F)cc(NC(=O)c4cn(C)c(C)c(-c5ccc(F)cc5)c4=O)cc3F)c2nc1OC [Compound 392, N-[4-[(6,7-dimethoxy-1,5-naphthyridin-4-yl)oxy]-3,5-difluorophenyl]-5-(4-fluorophenyl)-1,6-dimethyl-4-oxopyridine-3-carboxamide] | < 100 nM | < 100 nM | > 300 nM | < 100 nM
COc1cc2nccc(Oc3ccc(NC(=O)c4ncc(C)n(-c5ccc(F)cc5C)c4=O)cc3F)c2nc1OC [Compound 393, N-[4-[(6,7-dimethoxy-1,5-naphthyridin-4-yl)oxy]-3-fluorophenyl]-4-(4-fluoro-2-methylphenyl)-5-methyl-3-oxopyrazine-2-carboxamide] | < 100 nM | < 100 nM | < 100 nM | < 100 nM
COc1ccc2nccc(Oc3ccc(NC(=O)c4ncc(C)n(-c5ccc(F)cc5C)c4=O)cc3F)c2n1 [Compound 394, N-[3-fluoro-4-[(6-methoxy-1,5-naphthyridin-4-yl)oxy]phenyl]-4-(4-fluoro-2-methylphenyl)-5-methyl-3-oxopyrazine-2-carboxamide] | < 100 nM | < 100 nM | > 300 nM | < 100 nM
COc1cc2nccc(Oc3ncc(NC(=O)c4cn(C5CC5)cc(-c5ccc(F)cc5)c4=O)cc3F)c2cc1OC [Compound 399, 1-cyclopropyl-N-[6-(6,7-dimethoxyquinolin-4-yl)oxy-5-fluoropyridin-3-yl]-5-(4-fluorophenyl)-4-oxopyridine-3-carboxamide] | < 100 nM | < 100 nM | > 300 nM | < 100 nM
COc1cc2nccc(Oc3ncc(NC(=O)c4cn(C5CN(C)C5)cc(-c5ccc(F)cc5)c4=O)cc3F)c2cc1OC [Compound 400, N-[6-(6,7-dimethoxyquinolin-4-yl)oxy-5-fluoropyridin-3-yl]-5-(4-fluorophenyl)-1-(1-methylazetidin-3-yl)-4-oxopyridine-3-carboxamide] | < 100 nM | < 100 nM | > 300 nM | < 100 nM

Further lines, results first:

IC50 [1] | IC50 [2] | IC50 [3] | IC50 [4] | SMILES
< 100 nM | < 100 nM | < 100 nM | < 100 nM | Cc1ncc(C(=O)Nc2ccc(Oc3ccnc4cc(-c5cnn(C(F)F)c5)ccc34)cc2)c(O)c1-c1ccc(F)cc1 [Compound 377, N-[4-[7-[1-(difluoromethyl)pyrazol-4-yl]quinolin-4-yl]oxyphenyl]-5-(4-fluorophenyl)-4-hydroxy-6-methylpyridine-3-carboxamide]
< 100 nM | < 100 nM | > 300 nM | < 100 nM | COc1ccc2nccc(Oc3ccc(NC(=O)c4ncc(C)n(-c5ccc(F)cc5)c4=O)cc3)c2n1 [Compound 378, 4-(4-fluorophenyl)-N-[4-[(6-methoxy-1,5-naphthyridin-4-yl)oxy]phenyl]-5-methyl-3-oxopyrazine-2-carboxamide]
< 100 nM | < 100 nM | < 100 nM | < 100 nM | COc1cc2nccc(Oc3ccc(NC(=O)c4nccn(-c5ccc(F)cc5)c4=O)cc3F)c2nc1OC [Compound 379, N-[4-[(6,7-dimethoxy-1,5-naphthyridin-4-yl)oxy]-3-fluorophenyl]-4-(4-fluorophenyl)-3-oxopyrazine-2-carboxamide]
< 100 nM | < 100 nM | > 300 nM | < 100 nM | COc1ccc2nccc(Oc3ccc(NC(=O)c4nccn(-c5ccc(F)cc5)c4=O)cc3F)c2n1 [Compound 380, N-[3-fluoro-4-[(6-methoxy-1,5-naphthyridin-4-yl)oxy]phenyl]-4-(4-fluorophenyl)-3-oxopyrazine-2-carboxamide]
< 100 nM | < 100 nM | > 300 nM | < 100 nM | COc1cnc2c(Oc3ccc(NC(=O)c4nccn(-c5ccc(F)cc5)c4=O)cc3F)ccnc2c1 [Compound 381, N-[3-fluoro-4-[(7-methoxy-1,5-naphthyridin-4-yl)oxy]phenyl]-4-(4-fluorophenyl)-3-oxopyrazine-2-carboxamide]
< 100 nM | < 100 nM | > 300 nM | < 100 nM | COc1cnc2c(Oc3ccc(NC(=O)c4nccn(-c5ccc(F)cc5)c4=O)cc3)ccnc2c1 [Compound 382, 4-(4-fluorophenyl)-N-[4-[(7-methoxy-1,5-naphthyridin-4-yl)oxy]phenyl]-3-oxopyrazine-2-carboxamide]
< 100 nM | < 100 nM | > 300 nM | < 100 nM | COc1ccc2nccc(Oc3ccc(NC(=O)c4nccn(-c5ccc(F)cc5)c4=O)cc3)c2n1 [Compound 383, 4-(4-fluorophenyl)-N-[4-[(6-methoxy-1,5-naphthyridin-4-yl)oxy]phenyl]-3-oxopyrazine-2-carboxamide]
< 100 nM | < 100 nM | 100 to 300 nM | < 100 nM | COc1cc2nccc(Oc3ccc(NC(=O)c4nccn(-c5ccc(F)cc5)c4=O)cc3)c2nc1OC [Compound 384, N-[4-[(6,7-dimethoxy-1,5-naphthyridin-4-yl)oxy]phenyl]-4-(4-fluorophenyl)-3-oxopyrazine-2-carboxamide]
< 100 nM | < 100 nM | < 100 nM | < 100 nM | COc1cc2nccc(Oc3ccc(NC(=O)c4ccnn(-c5ccc(F)cc5)c4=O)cc3F)c2nc1OC [Compound 386, N-[4-[(6,7-dimethoxy-1,5-naphthyridin-4-yl)oxy]-3-fluorophenyl]-2-(4-fluorophenyl)-3-oxopyridazine-4-carboxamide]

From patent US12371428B2 (Exelixis, Inc., priority 2019, dated 2025)
